These results are taken from ChEMBL document CHEMBL4477251, “Vialinin A and thelephantin G, potent inhibitors of tumor necrosis factor-α production, inhibit sentrin/SUMO-specific protease 1 enzymatic activity” (Bioorg Med Chem Lett, 2016).

The structures appear in SMILES notation. Activity calls are given as the source filed them. The rule behind the calls is not given here.

Test [1] has as its target T1, Sentrin-specific protease 1 (Homo sapiens, UniProt Q9P0U3).
T1 sequence (Q9P0U3 whole entry): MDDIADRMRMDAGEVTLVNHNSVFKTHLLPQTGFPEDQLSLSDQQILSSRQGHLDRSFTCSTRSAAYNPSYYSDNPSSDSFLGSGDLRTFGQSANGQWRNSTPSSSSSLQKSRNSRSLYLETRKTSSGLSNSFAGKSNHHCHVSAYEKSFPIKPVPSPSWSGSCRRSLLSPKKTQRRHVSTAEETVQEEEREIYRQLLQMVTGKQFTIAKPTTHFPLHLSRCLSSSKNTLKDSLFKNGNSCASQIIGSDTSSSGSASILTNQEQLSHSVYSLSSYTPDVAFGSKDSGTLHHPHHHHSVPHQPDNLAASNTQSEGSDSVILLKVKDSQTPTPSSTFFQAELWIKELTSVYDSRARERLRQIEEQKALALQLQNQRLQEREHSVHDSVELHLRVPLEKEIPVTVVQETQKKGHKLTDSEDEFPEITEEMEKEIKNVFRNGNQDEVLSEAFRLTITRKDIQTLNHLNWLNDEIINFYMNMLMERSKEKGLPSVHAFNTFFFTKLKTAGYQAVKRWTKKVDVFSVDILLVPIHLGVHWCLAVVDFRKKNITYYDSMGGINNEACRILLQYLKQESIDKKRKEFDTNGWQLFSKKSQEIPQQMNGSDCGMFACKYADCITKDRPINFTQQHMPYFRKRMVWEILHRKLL
Briefly: Binding affinity to full-length recombinant human 6His-tagged SENP1 expressed in Escherichia coli BL21 (DE3).

The target in test [2] is T2, Sentrin-specific protease 1 (Homo sapiens) (UniProt Q9P0U3).
T2 sequence (whole entry): T1 sequence (Q9P0U3 whole entry)
In words: Inhibition of SENP1 in human KU812 cells preincubated for 20 mins followed by addition of HA-SUMO1-VS as substrate measured after 2 hrs by immunoblot analysis. The class given is cell-based.

For test [3], the target named is T1, Sentrin-specific protease 1. Briefly: Inhibition of full-length recombinant human 6His-tagged SENP1 expressed in Escherichia coli BL21 (DE3) preincubated for 15 mins followed by addition of SUMO1-AMC as substrate measured after 1 hr by fluorescence analysis.
Test [4] has the same target. Briefly: Binding affinity to recombinant human 6His-tagged SENP1 catalytic domain expressed in Escherichia coli.
The subject of the next test is Mast cell. In words: Inhibition of TNF-alpha production in mouse bone marrow-derived mast cells measured after 15 mins by ELISA. It is filed as functional, cell-based. To be noted: 0.25 h. In general terms: ELISA stands for enzyme-linked immunosorbent assay.
For test [5], the target named is T1, Sentrin-specific protease 1. In words: Inhibition of recombinant human 6His-tagged SENP1 catalytic domain expressed in Escherichia coli preincubated for 15 mins followed by addition of SUMO1-AMC as substrate measured after 1 hr by fluorescence analysis.
The test system of the next test is RBL-2H3. In words: Inhibition of TNF-alpha production in antigen-stimulated rat RBL2H3 cells measured after 15 mins by ELISA. Particulars: RBL-2H3, 0.25 h.

In general, Ki refers to the dissociation constant of the complex between target and ligand, obtained from inhibition or displacement. As usually defined, the IC50 is the point on the concentration scale where inhibition reaches its midpoint. For the compound `O=C(Cc1ccccc1)Oc1c(OC(=O)Cc2ccccc2)c(-c2ccc(O)cc2)c(O)c(O)c1-c1ccc(O)cc1` [VIALININ A], the Ki was determined as 1070 nM in test [1] and 930 nM in test [4]. Also, the inhibition entry in test [2] was “Active”. Also, the half-maximal inhibitory concentration (IC50) in test [3] was found to be 1640 nM; in the test with Mast cell, 0.04 nM; in test [5], 1890 nM.

Regarding `CCN1C(=O)C=CC1=O`, the inhibition result in test [2] is “Active”.

As to `Cc1c(C)c(-c2ccc(O)cc2)c(O)c(O)c1-c1ccc(O)cc1`, the inhibition result in test [2] was “Active”. The IC50 came out at 2710 nM in test [3] and 3760 nM in test [5].

In the case of `O=C1C(O)=C(c2ccc(O)cc2)C(=O)C(O)=C1c1ccc(O)cc1`, the results for the IC50 in test [3] and in test [5] were 3790 nM and 6100 nM, respectively.

As to `Cc1c(C)c(-c2ccc(OCc3cn(CCCCCCNC(=O)CCCC[C@@H]4SC[C@@H]5NC(=O)N[C@@H]54)nn3)cc2)c(O)c(O)c1-c1ccc(O)cc1`, the IC50 in test [3] was above 50000 nM; in test [5], 9730 nM.

On to `O=C(Cc1ccc(O)cc1)Oc1c(OC(=O)Cc2ccc(O)cc2)c(-c2ccc(O)cc2)c(O)c(O)c1-c1ccc(O)cc1`, for which the half-maximal inhibitory concentration (IC50) in the test on RBL-2H3 is 3.5 nM.
